Legend:
[1] = tested on: non-small cell lung cancer cells A549 [非小细胞肺癌细胞A549]; experiment: MTT antiproliferation assay, A549; type: cell-based; settings: Homo sapiens, 48 h
[2] = tested on: breast cancer cells MDA-MB-231 [乳腺癌细胞MDA-MB-231]; experiment: MTT antiproliferation assay, MDA-MB-231; type: cell-based; settings: Homo sapiens, 48 h
[3] = tested on: colon cancer cells HCT-116 [结肠癌细胞HCT-116]; experiment: MTT antiproliferation assay, HCT-116; type: cell-based; settings: Homo sapiens, 48 h
[4] = tested on: STAT3 phosphorylation [STAT3的磷酸化]; settings: background statement; in words; cited from earlier work
[5] = tested on: upstream kinase JAK [上游激酶JAK]; settings: background statement; in words; cited from earlier work
[6] = target: upstream kinase Src [上游激酶JAK或Src] (Homo sapiens, UniProt P12931); settings: background statement; in words; cited from earlier work
upstream kinase Src [上游激酶JAK或Src], sequence (P12931 whole entry): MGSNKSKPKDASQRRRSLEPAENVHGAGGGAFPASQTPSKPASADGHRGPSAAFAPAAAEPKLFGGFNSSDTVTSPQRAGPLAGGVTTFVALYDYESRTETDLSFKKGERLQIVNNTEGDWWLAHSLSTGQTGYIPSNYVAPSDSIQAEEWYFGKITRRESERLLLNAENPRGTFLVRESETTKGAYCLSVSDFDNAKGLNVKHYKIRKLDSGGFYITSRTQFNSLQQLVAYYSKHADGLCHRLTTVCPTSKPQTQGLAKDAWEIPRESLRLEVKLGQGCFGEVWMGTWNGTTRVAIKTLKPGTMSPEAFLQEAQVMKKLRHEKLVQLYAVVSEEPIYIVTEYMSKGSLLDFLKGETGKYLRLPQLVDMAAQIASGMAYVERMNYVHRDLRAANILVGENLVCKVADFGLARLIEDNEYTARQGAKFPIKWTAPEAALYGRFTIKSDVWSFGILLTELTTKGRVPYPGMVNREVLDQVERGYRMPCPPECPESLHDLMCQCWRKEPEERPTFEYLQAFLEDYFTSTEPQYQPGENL

[7] = tested on: tumour cells [肿瘤细胞]; settings: background statement, in words; cited from earlier work
[8] = tested on: STAT1 phosphorylation [STAT1的磷酸化]; settings: background statement; in words; cited from earlier work

IC50 [1] [µM] | IC50 [2] [µM] | IC50 [3] [µM] | SMILES | inhibition of STAT3 phosphorylation [4] | inhibition of upstream kinase JAK [5] | inhibition of upstream kinase Src [6] | IC50 [7] | inhibition of STAT1 phosphorylation [8]
4.46 | 5.88 | 4.83 | COc1ccc(S(=O)(=O)Nc2ccc(-c3ccc(C#N)c(F)c3)c3ccccc23)cc1 [VI 10] |  |  |  |  | 
 |  |  | COc1ccc(S(=O)(=O)Nc2cc(-c3c(O)ccc4ccccc34)c(O)c3ccccc23)cc1 [C188-9] | 能抑制STAT3的磷酸化 | 无明显抑制作用 | 无明显抑制作用 | 较高 | 有一定的抑制作用
